In series [1] the test system is S. aureus (clinical isolate W4). Description: MIC determination (microdilution). The format is cell-based, Staphylococcus aureus. The protocol:
(§1) A clinical isolate of S. aureus (W4) and the reference strain of P. aeruginosa ATCC 27853 were used in the study. For the preparation of stock cultures, bacterial strains were grown in Luria–Bertani broth (LB, Oxoid, Basingstoke, Hampshire, UK) until the late-log phase, subdivided into aliquots, and kept frozen at −80 °C until use. Identification and susceptibility testing of the S. aureus W4 strain were performed using MALDI-TOF (Bruker Daltonics, Bremen, Germany) and the BD Phoenix susceptibility testing system (BD, Milan, Italy), respectively.
(§2) The susceptibility of the bacterial strains to each of the tested compounds was assessed in terms of MIC values according to the standard microdilution method (Clinical and Laboratory Standards Institute–CLSI, 2018), with some modifications. Briefly, the bacteria were grown in LB broth until the exponential growth phase and then diluted in the same medium to reach a final density of 5 × 10^6 CFU/mL. A volume of 10 μL of the bacterial suspensions was added to 90 μL of LB in a 96-well plate in the absence (viability control) or presence of the test compound at different concentrations.
A general note: In broth dilution the organism is exposed to a series of concentrations in liquid medium.

Another series deals with P. aeruginosa ATCC 27853. Description: MIC determination (microdilution). The format is cell-based, Pseudomonas aeruginosa. The protocol: as §1, §2
Series [2] can be described thus: Modified Draize test (ocular irritation). In kind it is in vivo, New Zealand albino rabbits. The conditions noted are these: single eye drop instillation, rabbit; observed 0.5-6 h. The protocol: Male New Zealand albino rabbits weighing approximately 2.6-3 Kg, kept in standard housing conditions, were used for in vivo studies. The animals were treated as prescribed in the guidelines of the European Community Council Directive 2010/63. The animal protocol was approved by the Italian Ministry of University and Research (authorisation n. 192/2019-PR). The eye drops were prepared in CB (200 mOsm/kg). […] (588 mOsm/kg). A suspension of plain DIA (0.34 M) in CB was used as a reference sample (230 mOsm/kg). The samples' osmolality was checked using a Roebling osmometer (calibrated with NaCl 300 mOsm/kg H2O). To assess the irritation of the rabbits' eyes after instillation of the eye drops under study, a modified Draize test was performed, following the procedure previously described in [50]. This irritation test was conducted using a 0 (absence) to 3 (maximum) clinical rating scale for lachrymation, oedema, and conjunctival redness. For each of the samples under study, the test was performed on three rabbits, through a single instillation of the eye drops (50 μL) per rabbit eye, while the untreated contralateral eye was used as a control. […] An overall irritation index (Iirr) was calculated by adding the total clinical evaluation scores for each observation time. A score of 2 or 3 in any category or an Iirr greater than 4 was considered an indicator of clinically significant irritation.

The nature of series [3]: Osmolality of eye drops (osmometer). The format is physicochemical. Particulars: eye drops in CB. Here is the method:
Male New Zealand albino rabbits weighing approximately 2.6-3 Kg, kept in standard housing conditions, were used for in vivo studies. The animals were treated as prescribed in the guidelines of the European Community Council Directive 2010/63. The animal protocol was approved by the Italian Ministry of University and Research (authorisation n. 192/2019-PR). The eye drops were prepared in CB (200 mOsm/kg). […] (588 mOsm/kg). A suspension of plain DIA (0.34 M) in CB was used as a reference sample (230 mOsm/kg). The samples' osmolality was checked using a Roebling osmometer (calibrated with NaCl 300 mOsm/kg H2O).

The nature of series [4]: Stabilisation of DIA against hydrolysis to Rhe under simulated physiological conditions. Particulars: pH 7.4, 37 °C; for degradation of DIA / DIA degraded: 6 h. The format is physicochemical. Here is the method:
The stabilising effect of Bet6 and Carn6 on DIA’s hydrolysis was investigated under simulated in vitro conditions. […] After equilibrating for 30 min at 25 °C, the samples were transferred to a thermostatic shaking bath at 37 °C, and their pH was rapidly brought to 7.4 by adding 10 N NaOH. At defined time intervals (30 min, 1 h, 2 h, 3 h, 4 h, 5 h, and 6 h), a 500 µL sampling was performed, and the hydrolysis was blocked by adding 2 µL of 37% HCl, bringing the pH back to 5. The amount of Rhe formed over time was evaluated spectrophotometrically. Degradation of DIA was expressed in mol% of Rhe formation. The stabilising capability was compared to that obtained with HP-β-CD by applying the protocol to DIA/HP-β-CD solutions in CB, with molar ratios of 1:3, 1:5, and 1:10.

For the next series, the system named is S. aureus W4. Description: Biofilm inhibition assay (crystal violet). The format is cell-based, Staphylococcus aureus. The conditions noted are these: any of the concentrations tested (3.12, 6.25, 12.5 μg/mL). The protocol:
After overnight growth in LB, cultures of P. aeruginosa ATCC 27853 and S. aureus W4 were diluted 1:100 in LB or in 50% tryptone soy broth (TSB, Oxoid) supplemented with 0.25% glucose (Sigma), respectively. The bacterial suspensions were dispensed into flat-bottomed polystyrene 96-well microplates (Corning Costar, Lowell, MA, USA) in the presence of sub-MIC concentrations of Rhe and DIA (3.12, 6.25, and 12.5 μg/mL). A sample containing 0.8 DMSO % (corresponding to the highest concentration of DMSO tested) was used as a control. The microplates were incubated statically at 37 °C for 24 h, and the biofilm biomass was estimated by CV (Sigma-Aldrich) staining assay, as previously described.

Converted amounts (≈) assume the structure as drawn. “Also recorded” adds a separate entry of the source. A value given as a limit tells only on which side of the number the result lay.

The term MIC denotes the lowest concentration that inhibits growth of the organism. Read a high MIC as a less susceptible organism. As for `CC(=O)Oc1cccc2c1C(=O)c1c(OC(C)=O)cc(C(=O)O)cc1C2=O` [DIA, diacerein], the minimal inhibitory concentration (MIC) in series [1] (Staphylococcus aureus, planktonic cells, 24 h, 37 °C) was 50 µg/mL (≈ 136 µM); in the series with P. aeruginosa ATCC 27853 (Pseudomonas aeruginosa, ATCC27853, planktonic cells, 24 h, 37 °C), more than 50 µg/mL. Besides, the antibacterial effect entry is “exert antibacterial effects” in series [1] (in words (discussion)) and “inactive” in the series with P. aeruginosa ATCC 27853 (in words (discussion)). Further, in series [2], the “ocular irritation signs (conjunctival redness, chemosis/oedema, secretion)” value is “modest redness of the conjunctiva and a slight conjunctival chemosis, but no secretion; also recorded: No redness, secretions, or conjunctival oedema”. In addition, the osmolality in series [3] is listed as 230 mOsm/kg. The entries for the “degradation of DIA” value in series [4] (0.018 M Bet6) and in series [4] (0.04 M Bet6) were 39% and 73%, respectively. The DIA degraded in series [4] (0.018 M Carn6 solution) is on record as 91%; in series [4] (0.04 M Carn6 solution) it was 98%. In addition, the “DIA preserved for 6 h” value in series [4] (0.27 M Bet6 solution (nanoaggregates)) is reported as 71%; in series [4] (0.35 M Bet6 solution (nanoaggregates)) it was 85%. Also, the “DIA not hydrolysed after 6 h” value in series [4] (Carn6 nanoaggregates present (0.27 M)) was 26%; in series [4] (Carn6 nanoaggregates present (0.35 M)), 34%. Further, in the series with S. aureus W4, the “biofilm formation (CV staining, OD 570 nm)” value is “no significant effects”.

The record behind these values is publication PMC9916883, “Betaine- and L-Carnitine-Based Ionic Liquids as Solubilising and Stabilising Agents for the Formulation of Antimicrobial Eye Drops Containing Diacerein” (International Journal of Molecular Sciences, 2023).
